Assay [1] concerns the target T1, IRE1α (Homo sapiens, UniProt O75460).
T1 construct: purchased Signal Chem E31-11G
In words: Biochemical assay: inhibition of RNase activity of IRE1α. The conditions noted are these: enzyme 0.325 nM, substrate 100 nM, 20 minutes. Summed up:
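Recombinant IRE1α (0.325 nM final) pre-incubated 30 min at room temperature with compounds (10-point ½-log series, duplicate, 4% DMSO final). Then 100 nM fluorophore/quencher-labelled RNA substrate added in 50 mM Tris, 0.5 mM MgCl2, 10 mM KCl, 2 mM DTT. Urea stop after 20 min; fluorescence read; IC50 from sigmoidal fit.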

Assay [2] deals with ARPE-19 cells stably expressing XBP1 (a.a. 1-376). As to the kind of experiment: Cellular XBP1 splicing assay (NanoLuc luciferase, thapsigargin). The class given is cell-based. The conditions noted are these: thapsigargin 150 nM. Summed up: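 ARPE-19 cells carrying an XBP1(1-376)-NanoLuc splicing reporter were pretreated with compound (10-point ½-log series, 0.117% DMSO) for 30 min, then stressed with 150 nM thapsigargin for 4 h at 37° C. Luminescence was read, and IC50 values came from sigmoidal fits of percent inhibition of control.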

The target of assay [3] is T1, IRE1α. As to the kind of experiment: Biochemical assay to detect inhibition of kinase activity of IRE1α (ADP-Glo). The procedure: Biochemical Assays to Detect Inhibition of Kinase Activity of IRE1α
The kinase reactions were performed in 384 well white ProxiPlate-384 Plus plates (PERKIN Elmer 6008280) using 25 mM MOPS assay buffer with 1 mM dithiothreitol, 25 mM MgCl2, 12.5 mM β-glycerophosphate, 5 mM EGTA, and 50 μg/mL BSA. Test compounds were prepared on the day of assay and dispensed using D300 digital dispenser as a 10-point ½ log dilution series in duplicate, normalized to a final DMSO concentration of 3%. Test compounds were pre-incubated for 30 min at room temperature with 10 nM IRE1α kinase (E31-11G from Signal Chem) in 2.5 μL of assay buffer and the reaction started by addition of 2.5 μL of ATP in assay buffer, to give a final ATP concentration of 100 μM and 5 nM IRE1α kinase. After 4 hours incubation at room temperature the reactions were stopped and the kinase activity determined using the ADP-Glo™ reagent from Promega, according to the manufacturer's instructions. Luminescence was measured on a luminometer (EnVision, PerkinElmer) and IC50 values calculated by fitting a sigmoidal curve to percent inhibition of control versus Log10 of compound concentration.

T1 sequence (O75460 468-977 limits assumed): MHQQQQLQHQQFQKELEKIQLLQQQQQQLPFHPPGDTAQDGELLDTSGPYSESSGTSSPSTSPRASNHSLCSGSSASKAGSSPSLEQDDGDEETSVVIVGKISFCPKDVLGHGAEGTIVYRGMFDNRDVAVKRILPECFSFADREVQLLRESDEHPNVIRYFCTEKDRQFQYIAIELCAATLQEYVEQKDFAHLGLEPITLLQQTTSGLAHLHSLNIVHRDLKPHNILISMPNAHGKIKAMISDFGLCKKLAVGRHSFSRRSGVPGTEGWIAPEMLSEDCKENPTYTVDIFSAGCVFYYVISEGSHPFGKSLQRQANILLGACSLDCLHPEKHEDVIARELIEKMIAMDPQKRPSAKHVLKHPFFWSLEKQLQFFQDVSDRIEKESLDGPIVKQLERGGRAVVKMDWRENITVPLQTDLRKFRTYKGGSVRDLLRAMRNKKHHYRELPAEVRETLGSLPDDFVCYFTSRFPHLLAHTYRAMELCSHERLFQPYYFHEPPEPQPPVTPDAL

The term IC50 denotes the concentration needed to halve the response being measured. Read a low IC50 as inhibition by little substance. Turning to `CC(C)n1nc(-c2ccc(NS(=O)(=O)Cc3ccccc3F)c(F)c2)c2c(N)ncc(C3=CCC(NC4COC4)CC3)c21` (single isomer, unassigned) [Compound B2, N-(4-(4-amino-1-isopropyl-7-(4-(oxetan-3-ylamino)cyclohex-1-en-1-yl)-1H-pyrazolo[4,3-c]pyridin-3-yl)-2-fluorophenyl)-1-(2-fluorophenyl)methanesulfonamide], the IC50 on IRE1α [1] was found to be 0.8 nM; in assay [2] (4 hour) it was 6.5 nM; at IRE1α [3], 1.9 nM.

In the case of `CC(C)n1nc(-c2cc(F)c(NS(=O)(=O)Cc3ccccc3Cl)cc2F)c2c(N)ncc(C3=CCC(NC4COC4)CC3)c21` (single isomer, unassigned) [Compound B6, N-(4-(4-amino-1-isopropyl-7-(4-(oxetan-3-ylamino)cyclohex-1-en-1-yl)-1H-pyrazolo[4,3-c]pyridin-3-yl)-2,5-difluorophenyl)-1-(2-chlorophenyl)methanesulfonamide], the IC50 stood at 5.1 nM at IRE1α [1], 47 nM in assay [2] (4 hour) and 5.2 nM against IRE1α [3].

With `CC(C)n1nc(-c2cc(F)c(NS(=O)(=O)c3ccccc3Cl)cc2F)c2c(N)ncc(C3=CCC(NC4COC4)CC3)c21` (single isomer, unassigned) [Compound B10, N-(4-(4-amino-1-isopropyl-7-(4-(oxetan-3-ylamino)cyc1ohex-1-en-1-yl)-1H-pyrazolo[4,3-c]pyridin-3-yl)-2,5-difluorophenyl)-2-chlorobenzenesulfonamide], the IC50 at IRE1α [1] came to 13 nM; in assay [2] (4 hour) it was 57 nM; at IRE1α [3] it was 7 nM.

In the case of `CC(C)n1nc(-c2ccc(NS(=O)(=O)Cc3ccccc3Cl)c(F)c2)c2c(N)ncc(C3=CCC(NC4COC4)CC3)c21` (single isomer, unassigned) [Compound B12, N-(4-(4-amino-1-isopropyl-7-(4-(oxetan-3-ylamino)cyclohex-1-en-1-yl)-1H-pyrazolo[4,3-c]pyridin-3-yl)-2-fluorophenyl)-1-(2-chlorophenyl)methanesulfonamide], the values for the IC50 (at IRE1α [1]; in assay [2] (4 hour); against IRE1α [3]) were 1.6 nM, 14 nM and 1.8 nM, respectively.

In the case of `CCn1nc(-c2ccc(NS(=O)(=O)Cc3ccccc3F)c(F)c2)c2c(N)ncc(C3=CCC(NC4COC4)CC3)c21` (single isomer, unassigned) [Compound B26, N-(4-(4-amino-1-ethyl-7-(4-(oxetan-3-ylamino)cyclohex-1-en-1-yl)-1H-pyrazolo[4,3-c]pyridin-3-yl)-2-fluorophenyl)-1-(2-fluorophenyl)methanesulfonamide], the IC50 against IRE1α [1] turned out to be 2.7 nM; in assay [2] (4 hour), 22 nM; at IRE1α [3] it was 4.1 nM.

For `CCn1nc(-c2ccc(NS(=O)(=O)Cc3ccccc3Cl)c(F)c2)c2c(N)ncc(C3=CCC(NC4COC4)CC3)c21` (single isomer, unassigned) [Compound B28, N-(4-(4-amino-1-ethyl-7-(4-(oxetan-3-ylamino)cyclohex-1-en-1-yl)-1H-pyrazolo[4,3-c]pyridin-3-yl)-2-fluorophenyl)-1-(2-chlorophenyl)methanesulfonamide], the IC50 against IRE1α [1] turned out to be 2.4 nM; in assay [2] (4 hour), 27 nM; against IRE1α [3], 3.9 nM.

For `CC(C)n1nc(-c2ccc(NS(=O)(=O)c3ccccc3F)c(F)c2)c2c(N)ncc([C@H]3CC[C@H](NC4COC4)CC3)c21` [Compound A1, N-(4-(4-amino-1-isopropyl-7-((1r,4r)-4-(oxetan-3-ylamino)cyclohexyl)-1H-pyrazolo[4,3-c]pyridin-3-yl)-2-fluorophenyl)-2-fluorobenzenesulfonamide], the IC50 against IRE1α [1] was 5.7 nM; in assay [2] (Homo sapiens, ARPE-19, 4 h), 7.9 nM; at IRE1α [3], 1.9 nM.

For the compound `CC(C)n1nc(-c2ccc(NS(=O)(=O)c3ccccc3Cl)c(F)c2)c2c(N)ncc([C@H]3CC[C@H](NC4COC4)CC3)c21` [Compound A34, N-(4-(4-amino-1-isopropyl-7-((1r,4r)-4-(oxetan-3-ylamino)cyclohexyl)-1H-pyrazolo[4,3-c]pyridin-3-yl)-2-fluorophenyl)-2-chlorobenzenesulfonamide], the IC50 at IRE1α [1] was 3.5 nM; in assay [2] (Homo sapiens, ARPE-19, 4 h), 4.3 nM; against IRE1α [3], 3 nM.

Consider `Nc1ncc([C@H]2CC[C@H](NC3COC3)CC2)c2c1c(-c1ccc(NS(=O)(=O)c3ccccc3F)c(F)c1)nn2C1CC1` [Compound A41, N-(4-(4-amino-1-cyclopropyl-7-((1r,4r)-4-(oxetan-3-ylamino)cyclohexyl)-1H-pyrazolo[4,3-c]pyridin-3-yl)-2-fluorophenyl)-2-fluorobenzenesulfonamide], for which the IC50 was 8 nM against IRE1α [1]; 16 nM in assay [2] (Homo sapiens, ARPE-19, 4 h); 4.3 nM against IRE1α [3].

On to `CCn1nc(-c2cc(F)c(NS(=O)(=O)Cc3ccccc3Cl)cc2F)c2c(N)ncc([C@H]3CC[C@H](NC4COC4)CC3)c21` [Compound A42, N-(4-(4-amino-1-ethyl-7-((1r,4r)-4-(oxetan-3-ylamino)cyclohexyl)-1H-pyrazolo[4,3-c]pyridin-3-yl)-2,5-difluorophenyl)-1-(2-chlorophenyl)methanesulfonamide], for which the IC50 against IRE1α [1] worked out at 3.2 nM; in assay [2] (Homo sapiens, ARPE-19, 4 h) it was 19 nM; against IRE1α [3], 3 nM.

Regarding `CCn1nc(-c2cc(F)c(NS(=O)(=O)Cc3ccccc3F)cc2F)c2c(N)ncc([C@H]3CC[C@H](NC4COC4)CC3)c21` [Compound A43, N-(4-(4-amino-1-ethyl-7-((1r,4r)-4-(oxetan-3-ylamino)cyclohexyl)-1H-pyrazolo[4,3-c]pyridin-3-yl)-2,5-difluorophenyl)-1-(2-fluorophenyl)methanesulfonamide], the IC50 came to 5.4 nM against IRE1α [1]; 52 nM in assay [2] (Homo sapiens, ARPE-19, 4 h); 3.2 nM against IRE1α [3].

On to `CCn1nc(-c2cc(F)c(NS(=O)(=O)c3ccccc3Cl)cc2F)c2c(N)ncc([C@H]3CC[C@H](NC4COC4)CC3)c21` [Compound A44, N-(4-(4-amino-1-ethyl-7-((1r,4r)-4-(oxetan-3-ylamino)cyclohexyl)-1H-pyrazolo[4,3-c]pyridin-3-yl)-2,5-difluorophenyl)-2-chlorobenzenesulfonamide], for which the 50% inhibitory concentration (IC50) at IRE1α [1] was 8.2 nM; in assay [2] (Homo sapiens, ARPE-19, 4 h), 31 nM; at IRE1α [3] it was 2.8 nM.

For `CCn1nc(-c2cc(F)c(NS(=O)(=O)c3ccccc3F)cc2F)c2c(N)ncc([C@H]3CC[C@H](NC4COC4)CC3)c21` [Compound A45, N-(4-(4-amino-1-ethyl-7-((1r,4r)-4-(oxetan-3-ylamino)cyclohexyl)-1H-pyrazolo[4,3-c]pyridin-3-yl)-2,5-difluorophenyl)-2-fluorobenzenesulfonamide], the IC50 is 16 nM against IRE1α [1]; 94 nM in assay [2] (Homo sapiens, ARPE-19, 4 h); 6.5 nM against IRE1α [3].

On to `CC(C)n1nc(-c2ccc(NS(=O)(=O)c3ccccc3F)c(F)c2)c2c(N)ncc([C@H]3CC[C@H](N(C)C4COC4)CC3)c21` [Compound A46], for which the half-inhibitory concentration (IC50) came to 7.7 nM at IRE1α [1]; 8.4 nM in assay [2] (Homo sapiens, ARPE-19, 4 h); 3.6 nM at IRE1α [3].

On to `CC(C)n1nc(-c2cc(F)c(NS(=O)(=O)Cc3ccccc3Cl)cc2F)c2c(N)ncc([C@H]3CC[C@H](NC4COC4)CC3)c21` [Compound A47, N-(4-(4-amino-1-isopropyl-7-((1r,4r)-4-(oxetan-3-ylamino)cyclohexyl)-1H-pyrazolo[4,3-c]pyridin-3-yl)-2,5-difluorophenyl)-1-(2-chlorophenyl)methanesulfonamide], for which the IC50 against IRE1α [1] came to 1.3 nM; in assay [2] (Homo sapiens, ARPE-19, 4 h) it was 5.6 nM; against IRE1α [3], 2 nM.

(Values after US20220153734A1, “Pyrazolopyridine Compounds For IRE1 Inhibition” (Optikira, LLC, priority 2019, published 2022).)
